Source: ChEMBL document CHEMBL1158888, “New bioactive rosigenin analogues and aromatic polyketide metabolites from the freshwater aquatic fungus Massarina tunicata” (2003)
The source made the active and inactive calls. No cut-off for these calls is given here.

Key:
Bacillus subtilis [1] = test: Antimicrobial activity against Bacillus subtilis ATCC 6051 at 200 ug/ml by standard disk assay; assay type: functional; details: read-out: IZ
Staphylococcus aureus = test: Antimicrobial activity against Staphylococcus aureus ATCC 29213 at 200 ug/ml by standard disk assay; assay type: functional; details: read-out: IZ
Bacillus subtilis [2] = test: Antimicrobial activity against Bacillus subtilis ATCC 6051 at 200 ug/disk by standard disk assay

Structure (SMILES) | zone of inhibition at 200 µg/mL (Bacillus subtilis [1]) | zone of inhibition at 200 µg/mL (Staphylococcus aureus) | Activity (Bacillus subtilis [2])
C=C1OC(=O)[C@]2([C@H](C)C=CC(=O)[C@H]2O)[C@H]1O [MASSARIGENIN D] | 14 mm | – | –
C#C[C@H](O)COc1ccc(C(=O)O)cc1 | 15 mm | – | –
C[C@H]1CC(=O)c2c(coc2-c2c(O)ccc3c2OC(C)(C)C=C3)[C@@H]1O [MASSARININ B] | 23 mm | 12 mm | –
C=C1OC(=O)[C@]2([C@H](C)C=C[C@H](O)[C@@H]2O)[C@@H]1O [MASSARIGENIN A] | 11 mm | – | –
COc1c(C)cc(O)c(C(=O)c2c(O)ccc3c2OC(C)(C)C=C3)c1C=O [MASSARININ A] | 17 mm | 7 mm | –
C=C1OC(=O)[C@]2([C@H](C)C=CC(=O)[C@@H]2O)[C@H]1O [MASSARIGENIN C] | 9 mm | – | –
C=C1OC(=O)[C@]2([C@H](C)CCC(=O)[C@@H]2O)[C@H]1O | – | – | inactive
